Results as given in US20190375778A1, “ADENOSINE DERIVATIVES FOR USE IN THE TREATMENT OF CANCER” (NuCana plc, priority 2016, published 2019).

Legend:
[1] = tested on: KG1a leukaemic stem cell compartment (Lin−/CD34+/CD38−/CD123+); experiment: Leukaemic stem cell compartment in KG1a; type: cell-based; conditions: for Change relative to control (%): % LSC compartment versus the series' control; for KG-1a (CD34+/CD38−/CD123+) % compartment: LSC as percentage of viable cells left, 72 hrs
Protocol: A further comparative analysis of the toxicity of compounds in the KG1a cell line over an extended dose range was carried out, and the relative effect assessed of the compounds on the leukaemic stem cell compartment within the KG1a cell line, across the entire dose range. Thus, experimental tests were performed on certain compounds of the present invention to assess their ability to target cancer stem cells in a leukaemic cell line. The acute myeloid leukaemia (AML) cell line, KG1a, was employed to assess the relative effect of compounds on the stem cell compartment. The KG1a cell line was selected because it manifests a minor stem cell-like compartment with a distinct immunophenotype (Lin^−/CD34^+/CD38^−/CD123^+).
Cells of the KG1a cell line were maintained in RPMI medium (Invitrogen, Paisley, UK) supplemented with 100 units/ml penicillin, 100 μg/ml streptomycin and 20% foetal calf serum. Cells were subsequently aliquoted (10^5 cells/100 μl) into 96-well plates and were incubated at 37° C. in a humidified 5% carbon dioxide atmosphere for 72 hrs in the presence of nucleoside analogues and their respective nucleotide analogues (known as ProTides) at concentrations that were experimentally determined for each series of compounds. In addition, control cultures were carried out to which no drug was added. Cells were subsequently harvested by centrifugation and were analyzed by flow cytometry using the Annexin V assay.
KG1a cells were cultured for 72 hrs in the presence of a wide range of concentrations of each compound assayed. Cells were then harvested and labelled with a cocktail of anti-lineage antibodies (PE-cy7), anti-CD34 (FITC), anti-CD38 (PE) and anti-CD123 (PERCP cy5). The sub-population expressing a leukaemic stem cell (LSC) phenotype were subsequently identified and were expressed as a percentage of all viable cells left in the culture. The percentages of stem cells remaining were then plotted on a dose-response graph and the effects of the compounds were compared with 8-chloroadenosine.
The data obtained in these experiments were evaluated using one way ANOVA. All data was confirmed as Gaussian or a Gaussian approximation using the omnibus K2 test. LD50 values were calculated from the non-linear regression and line of best-fit analysis of the sigmoidal dose-response curves. All statistical analyses were performed using Graphpad Prism 6.0 software (Graphpad Software Inc., San Diego, Calif.).

Murine leukemia L1210 = experiment: Cell proliferation (Coulter count) assay, L1210; type: cell-based; conditions: Mus musculus, 48 h, read-out: absolute IC50, L1210
Text: (§1) Lovo: cell line derived from a metastatic site in a patient with colon cancer MCF7: human oestrogen sensitive mammary epithelial cell line PC3: human prostate cancer cell line A549: cancerous lung tissue derived cells L1210: lymphoblast cell line derived from a mouse with lymphocytic leukaemia FM3A: mammary carcinoma murine cells CEM: human T-lymphoblasts, derived from the blood of a patient with acute lymphoblastic leukaemia HeLa: epithelial cells from a patient with cervical adenocarcinoma
(§2) Murine leukemia L1210, human T-lymphocyte CEM, and human cervix carcinoma HeLa cells were obtained from the American Type Culture Collection (ATCC) (Rockville, Md.). All cells were maintained in Dulbecco's modified Eagle's medium (DMEM) (Invitrogen, Carlsbad, Calif.) with 10% fetal bovine serum (FBS) (Biochrom AG, Berlin, Germany), 10 mM Hepes, and 1 mM sodiumpyruvate (Invitrogen). Cells were grown at 37° C. in a humidified incubator with a gas phase of 5% CO2. Monolayer cells (HeLa and […]) were seeded in 96-well microtiter plates (Nunc, Roskilde, Denmark) at 10 000 cells/well. After 24 h, an equal volume of fresh medium containing the test compounds was added. On day 5, cells were trypsinized and counted in a Coulter counter (Analis, Suarlee, Belgium). Suspension cells (L1210, CEM) were seeded in 96-well microtiter plates (Nunc) at 60 000 cells/well in the presence of a given amount of the test compounds. The cells were allowed to proliferate for 48 h (L1210) or 72 h (CEM) and were then counted in a Coulter counter. The 50% inhibitory concentration (IC50) was defined as the compound concentration required to reduce cell proliferation by 50%. The cytostatic activity of the compounds was determined after 3 days, as outlined above.

human T-lymphocyte CEM = experiment: Cell proliferation (Coulter count) assay, CEM; type: cell-based; conditions: 72 h, read-out: absolute IC50, CEM
Text: as §1, §2

[2] = tested on: human cervix carcinoma HeLa cells; experiment: Cell proliferation (Coulter count) assay, HeLa; type: cell-based; conditions: 120 h, cell count on day 5, read-out: absolute IC50, HeLa
Text: as §1, §2

CCRFCEM = experiment: CellTiterGlo viability assay, CCRFCEM; type: cell-based; conditions: Homo sapiens, CCRF-CEM, 72 h, read-out: IC50 CCRFCEM
Protocol: (§3) In vitro viability assay were performed to assess the effects of compounds on cell viability in selected cell lines over ˜72 hrs using the CellTiterGlo (CTG, Promega-G7573) assay. The tests were performed in duplicates with treatment of compounds at 9 points, 3.16 folds titration in 96 well plates over ˜72 hrs. The compound starting concentrations were 198 μM. Cell viability assay using CellTiterGlo in 96-well plate were performed. Compound treatment 72 hrs, standard growth conditions, duplicates. Compounds were dissolved to 40 mM with thawed […]. Compounds were serially diluted at 3.16 fold in thawed DMSO, and warmed to 37° C. before being dissolved in media (2 μl+200 μl). After compounds were dissolved in media, media containing compounds were warmed to 37° C. in incubator and then compounds in media were added to cell plates (50 μl+50 μl) in duplicates. The compounds' final concentrations were from […] to 19.9 nM. All compound solubilities were checked and recorded again, then the plates were transferred to CO2 tissue culture incubator immediately and incubated for 3 days. DMSO final concentration is 0.5%.

HEL92.1.7 = experiment: CellTiterGlo viability assay, HEL92.1.7; type: cell-based; conditions: Homo sapiens, HEL 92.1.7, 72 h, read-out: IC50 HEL92.1.7
Protocol: as §3

KG-1 = experiment: CellTiterGlo viability assay, KG-1; type: cell-based; conditions: Homo sapiens, KG-1, 72 h, read-out: IC50 KG-1
Protocol: as §3

K562 = experiment: CellTiterGlo viability assay, K562; type: cell-based; conditions: Homo sapiens, K562, 72 h, read-out: IC50 K562
Protocol: as §3

NCI-H929 = experiment: CellTiterGlo viability assay, NCI-H929; type: cell-based; conditions: Homo sapiens, NCI-H929, 72 h, read-out: IC50 NCI-H929
Protocol: as §3

MV4-11 = experiment: CellTiterGlo viability assay, MV4-11; type: cell-based; conditions: Homo sapiens, MV4-11, 72 h, read-out: IC50 MV4-11
Protocol: as §3

RL = experiment: CellTiterGlo viability assay, RL; type: cell-based; conditions: Homo sapiens, RL, 72 h, read-out: IC50 RL
Protocol: as §3

RPMI-8226 = experiment: CellTiterGlo viability assay, RPMI-8226; type: cell-based, Human; conditions: Homo sapiens, RPMI-8226, 72 h, read-out: IC50 RPMI-8226
Protocol: as §3

HL-60 = experiment: CellTiterGlo viability assay, HL-60; type: cell-based; conditions: Homo sapiens, HL-60, 72 h, read-out: IC50 HL-60
Protocol: as §3

`Nc1nc(Cl)nc2c1ncn2[C@H]1C[C@H](O)[C@@H](CO)O1` [Cladribine] was tested, and the “Change relative to control (%)” value [1] was “+2.0%” and the “KG-1a (CD34+/CD38−/CD123+) % compartment” value [1] was 6.0%.

With `CCOC(=O)CNP(=O)(OC[C@H]1O[C@@H](n2c(Cl)nc3c(N)ncnc32)C(O)C1O)Oc1cccc2ccccc12` (stereo partly shown) [N, 5′-([(ethyloxy-glycin-N-yl)-naphth-1-yl]-phosphatyl) 8-chloroadenosine] the IC50 (Murine leukemia L1210) was 15 to 100 µM, the IC50 (human T-lymphocyte CEM) was 15 to 100 µM and the IC50 [2] was 0.1 to 5 µM.

Compound `CCOC(=O)[C@H](Cc1ccccc1)NP(=O)(OC[C@H]1O[C@@H](n2c(Cl)nc3c(N)ncnc32)C(O)C1O)Oc1cccc2ccccc12` (stereo partly drawn) [S, 5′-([(Ethyloxy-L-phenylalanin-N-yl)-naphth-1-yl]-phosphatyl) 8-chloroadenosine] has an IC50 (Murine leukemia L1210) of 15 to 100 µM, an IC50 (human T-lymphocyte CEM) of 5 to 15 µM and an IC50 [2] of 0.1 to 5 µM.

In the case of `C[C@H](NP(=O)(OC[C@H]1O[C@@H](n2c(Cl)nc3c(N)ncnc32)C(O)C1O)Oc1cccc2ccccc12)C(=O)OC1CCCCC1` (stereo partly drawn) [G, 5′-([(Cyclohexyloxy-L-alanin-N-yl)-naphth-1-yl]-phosphatyl) 8-chloroadenosine], the IC50 (Murine leukemia L1210) is reported as 15 to 100 µM, the IC50 (human T-lymphocyte CEM) is reported as 5 to 15 µM and the IC50 [2] is reported as 0.1 to 5 µM.

`Nc1nc(Cl)nc2c1ncn2[C@@H]1O[C@H](CO)[C@@H](O)[C@@H]1F` [Clofarabine] was tested, and the “Change relative to control (%)” value [1] was −0.2% and the “KG-1a (CD34+/CD38−/CD123+) % compartment” value [1] was 3.3%.

Compound `CCCCCOC(=O)[C@H](Cc1ccccc1)NP(=O)(OC[C@H]1O[C@@H](n2c(Cl)nc3c(N)ncnc32)C(O)C1O)Oc1cccc2ccccc12` (stereo partly drawn) [Q, 5′-([(Pent-1-yloxy-L-phenylalanin-N-yl)-naphth-1-yl]-phosphatyl) 8-chloroadenosine] has an IC50 (Murine leukemia L1210) of 5 to 15 µM, an IC50 (human T-lymphocyte CEM) of 0.1 to 5 µM and an IC50 [2] of 0.1 to 5 µM. It also gave an IC50 (CCRFCEM) of 5 to 15 µM, an IC50 (HEL92.1.7) of 0.1 to 5 µM and an IC50 (KG-1) of 5 to 15 µM. For the same compound, the IC50 (K562) was 0.1 to 5 µM, the IC50 (NCI-H929) was 5 to 15 µM and the IC50 (MV4-11) was 0.1 to 5 µM. The IC50 (RL) was 5 to 15 µM, the IC50 (RPMI-8226) was 0.1 to 5 µM and the IC50 (HL-60) was 5 to 15 µM.

Work on `CCCCCOC(=O)[C@H](CC(C)C)NP(=O)(OC[C@H]1O[C@@H](n2c(Cl)nc3c(N)ncnc32)C(O)C1O)Oc1cccc2ccccc12` (stereo partly drawn) [I, 5′-([(Pent-1-yloxy-L-leucin-N-yl)-naphth-1-yl]-phosphatyl) 8-chloroadenosine] yielded an IC50 (Murine leukemia L1210) of 5 to 15 µM, an IC50 (human T-lymphocyte CEM) of 5 to 15 µM and an IC50 [2] of 0.1 to 5 µM.

`Nc1ncnc2c1nc(Cl)n2[C@@H]1O[C@H](COP(=O)(N[C@@H](Cc2ccccc2)C(=O)OC2CCCCC2)Oc2cccc3ccccc23)C(O)C1O` (stereo partly drawn) [R, 5′-([(Cyclohexyloxy-L-phenylalanin-N-yl)-naphth-1-yl]-phosphatyl) 8-chloroadenosine] showed an IC50 (Murine leukemia L1210) of 5 to 15 µM, an IC50 (human T-lymphocyte CEM) of 5 to 15 µM and an IC50 [2] of 0.1 to 5 µM.
